How the values were obtained:
Assay in all cases: Post-Emergent Test II herbicidal activity
Type in all cases: in vivo
[1] = system: ORYSA: rice (Oryza sativa); conditions: post-emergence, 336 h, 14 days, read-out: Visual Growth Reduction (%) 14 Days After Application ORYSA; for pest or weed control at 35 g/ha: 35 g ai/ha; for pest or weed control at 70 g/ha: 70 g ai/ha; for pest or weed control at 140 g/ha: 140 g ai/ha
Procedure: (§1) Post-Emergent Test II: Seeds or nutlets of the desired test plant species were planted in Sun Gro Metro-Mix® 360 planting mixture, which typically has a pH of 6.0 to 6.8 and an organic matter content of about 30 percent, in plastic pots with a surface area of 64 square centimeters. When required to ensure good germination and healthy plants, a fungicide treatment and/or other chemical or physical treatment was applied. The plants were grown for 7-21 d in a greenhouse with an approximate 15 h photoperiod which was maintained at about 23-29° C. during the day and 22-28° C. during the night. Nutrients and water were added on a regular basis and supplemental lighting was provided with overhead metal halide 1000-Watt lamps as necessary. The plants were employed for testing when they reached the first or second true leaf stage.
(§2) A weighed amount, determined by the highest rate to be tested, of each test compound was placed in a 25 mL glass vial and was dissolved in 4 mL of a 97:3 v/v mixture of acetone and DMSO to obtain concentrated stock solutions. […] The concentrated stock solutions obtained were diluted with 20 mL of an aqueous mixture containing acetone, water, isopropyl alcohol, DMSO, Atplus 411F crop oil concentrate, and Triton® X-155 surfactant in a 48.5:39:10:1.5:1.0:0.02 v/v ratio to obtain spray solutions containing the highest application rates. Additional application rates were obtained by serial dilution of 12 mL of the high rate solution into a solution containing 2 mL of 97:3 v/v mixture of acetone and DMSO and 10 mL of an aqueous mixture containing acetone, water, isopropyl alcohol, DMSO, Atplus 411F crop oil concentrate, and Triton X®-155 surfactant in a 48.5:39:10:1.5:1.0:0.02 v/v ratio to obtain ½×, ¼×, ⅛× and 1/16× rates of the high rate. Compound requirements are based upon a 12 mL application volume at a rate of 187 liters per hectare (L/ha). Formulated compounds were applied to the plant material with an overhead Mandel track sprayer equipped with 8002E nozzles calibrated to deliver 187 L/ha over an application area of 0.503 square meters at a spray height of 18 inches […] above the average plant canopy height. Control plants were sprayed in the same manner with the solvent blank.
(§3) The treated plants and control plants were placed in a greenhouse as described above and watered by subirrigation to prevent wash-off of the test compounds. After 14 d, the condition of the test plants as compared with that of the untreated plants was determined visually and scored on a scale of 0 to 100 percent where 0 corresponds to no injury and 100 corresponds to complete kill.

[2] = system: EPHHL: wild poinsettia (Euphorbia heterophylla); conditions: post-emergence, 336 h, 14 days, read-out: Visual Growth Reduction (%) 14 Days After Application EPHHL; for pest or weed control at 35 g/ha: 35 g ai/ha; for pest or weed control at 70 g/ha: 70 g ai/ha; for pest or weed control at 140 g/ha: 140 g ai/ha
Procedure: as §1, §2, §3

[3] = system: AMARE: redroot pigweed (Amaranthus retroflexus); conditions: post-emergence, 336 h, 14 days, read-out: Visual Growth Reduction (%) 14 Days After Application AMARE
Procedure: as §1, §2, §3

[4] = system: BRSNN: oilseed rape, canola (Brassica napus); conditions: post-emergence, 336 h, 14 days, read-out: Visual Growth Reduction (%) 14 Days After Application BRSNN; for pest or weed control at 35 g/ha: 35 g ai/ha; for pest or weed control at 70 g/ha: 70 g ai/ha; for pest or weed control at 140 g/ha: 140 g ai/ha
Procedure: as §1, §2, §3

[5] = system: TRZAS: wheat, spring (Triticum aestivum); conditions: post-emergence, 336 h, 14 days, read-out: Visual Growth Reduction (%) 14 Days After Application TRZAS; for pest or weed control at 35 g/ha: 35 g ai/ha; for pest or weed control at 70 g/ha: 70 g ai/ha; for pest or weed control at 140 g/ha: 140 g ai/ha
Procedure: as §1, §2, §3

[6] = system: CHEAL: lambsquarters (Chenopodium album); conditions: post-emergence, 336 h, 14 days, read-out: Visual Growth Reduction (%) 14 Days After Application CHEAL; for pest or weed control at 35 g/ha: 35 g ai/ha; for pest or weed control at 70 g/ha: 70 g ai/ha; for pest or weed control at 140 g/ha: 140 g ai/ha
Procedure: as §1, §2, §3

[7] = system: ECHCG: barnyardgrass (Echinochloa crus-galli); conditions: post-emergence, 336 h, 14 days, read-out: Visual Growth Reduction (%) 14 Days After Application ECHCG; for pest or weed control at 35 g/ha: 35 g ai/ha; for pest or weed control at 70 g/ha: 70 g ai/ha; for pest or weed control at 140 g/ha: 140 g ai/ha
Procedure: as §1, §2, §3

[8] = system: ABUTH: velvetleaf (Abutilon theophrasti); conditions: post-emergence, 336 h, 14 days, read-out: Visual Growth Reduction (%) 14 Days After Application ABUTH; for pest or weed control at 35 g/ha: 35 g ai/ha; for pest or weed control at 70 g/ha: 70 g ai/ha; for pest or weed control at 140 g/ha: 140 g ai/ha
Procedure: as §1, §2, §3

[9] = system: CYPES: yellow nutsedge (Cyperus esculentus); conditions: post-emergence, 336 h, 14 days, read-out: Visual Growth Reduction (%) 14 Days After Application CYPES; for pest or weed control at 35 g/ha: 35 g ai/ha; for pest or weed control at 70 g/ha: 70 g ai/ha; for pest or weed control at 140 g/ha: 140 g ai/ha
Procedure: as §1, §2, §3

[10] = system: ZEAMX: maize, corn (Zea mays); conditions: post-emergence, 336 h, 14 days, read-out: Visual Growth Reduction (%) 14 Days After Application ZEAMX; for pest or weed control at 35 g/ha: 35 g ai/ha; for pest or weed control at 70 g/ha: 70 g ai/ha; for pest or weed control at 140 g/ha: 140 g ai/ha
Procedure: as §1, §2, §3

[11] = system: HELAN: sunflower (Helianthus annuus); conditions: post-emergence, 336 h, 14 days, read-out: Visual Growth Reduction (%) 14 Days After Application HELAN; for pest or weed control at 35 g/ha: 35 g ai/ha; for pest or weed control at 70 g/ha: 70 g ai/ha
Procedure: as §1, §2, §3

[12] = system: SETFA: giant foxtail (Setaria faberi); conditions: post-emergence, 336 h, 14 days, read-out: Visual Growth Reduction (%) 14 Days After Application SETFA
Procedure: as §1, §2, §3

Row | SMILES | pest or weed control at 35 g/ha [1] [%] | pest or weed control at 70 g/ha [1] [%] | pest or weed control at 140 g/ha [1] [%] | pest or weed control at 35 g/ha [2] [%] | pest or weed control at 70 g/ha [2] [%] | pest or weed control at 140 g/ha [2] [%] | pest or weed control at 35 g/ha [4] [%] | pest or weed control at 70 g/ha [4] [%] | pest or weed control at 140 g/ha [4] [%] | pest or weed control at 35 g/ha [5] [%] | pest or weed control at 70 g/ha [5] [%] | pest or weed control at 140 g/ha [5] [%] | pest or weed control at 35 g/ha [6] [%] | pest or weed control at 70 g/ha [6] [%] | pest or weed control at 140 g/ha [6] [%] | pest or weed control at 35 g/ha [7] [%] | pest or weed control at 70 g/ha [7] [%] | pest or weed control at 140 g/ha [7] [%] | pest or weed control at 35 g/ha [8] [%] | pest or weed control at 70 g/ha [8] [%] | further results
1 | Nc1c(F)c(-c2ccc3nonc3c2)nc(C(=O)O)c1Cl [Compound 2, 4-Amino-6-(benzo[c][1,2,5]oxadiazol-5-yl)-3-chloro-5-fluoropicolinic acid] | 0 to 29 | 0 to 29 | 0 to 29 | 60 to 74 | 60 to 74 | 60 to 74 | 60 to 74 | 75 to 84 | 75 to 84 | 60 to 74 | 60 to 74 | 60 to 74 | 95 to 100 | 95 to 100 | 95 to 100 | 60 to 74 | 75 to 84 | 75 to 84 | 75 to 84 | 75 to 84 | pest or weed control at 35 g/ha ([3]; 35 g ai/ha): 95 to 100%; pest or weed control at 70 g/ha ([3]; 70 g ai/ha): 95 to 100%; pest or weed control at 140 g/ha ([3]; 140 g ai/ha): 95 to 100%; pest or weed control at 140 g/ha [8]: 85 to 94%; pest or weed control at 35 g/ha [9]: 0 to 29%; pest or weed control at 70 g/ha [9]: 0 to 29%; pest or weed control at 140 g/ha [9]: 0 to 29%; pest or weed control at 35 g/ha [10]: 60 to 74%; pest or weed control at 70 g/ha [10]: 60 to 74%; pest or weed control at 140 g/ha [10]: 60 to 74%; pest or weed control at 35 g/ha [11]: 85 to 94%; pest or weed control at 70 g/ha [11]: 85 to 94%; pest or weed control at 140 g/ha ([11]; 140 g ai/ha): 95 to 100%
2 | COC(=O)c1nc(-c2cc3nonc3cc2F)nc(N)c1OC [Compound 10, Methyl 6-amino-2-(6-fluorobenzo[c][1,2,5]oxadiazol-5-yl)-5-methoxypyrimidine-4-carboxylate] | 0 to 29 | 0 to 29 | 0 to 29 | 45 to 59 | 60 to 74 | 75 to 84 | 60 to 74 | 75 to 84 | 75 to 84 | 0 to 29 | 0 to 29 | 0 to 29 | 0 to 29 | 0 to 29 | 0 to 29 | 0 to 29 | 0 to 29 | 0 to 29 | 0 to 29 | 0 to 29 | pest or weed control at 35 g/ha ([12]; 35 g ai/ha): 0 to 29%; pest or weed control at 70 g/ha ([12]; 70 g ai/ha): 0 to 29%; pest or weed control at 140 g/ha ([12]; 140 g ai/ha): 0 to 29%; pest or weed control at 140 g/ha [8]: 0 to 29%; pest or weed control at 35 g/ha [9]: 0 to 29%; pest or weed control at 70 g/ha [9]: 0 to 29%; pest or weed control at 140 g/ha [9]: 0 to 29%; pest or weed control at 35 g/ha [10]: 0 to 29%; pest or weed control at 70 g/ha [10]: 0 to 29%; pest or weed control at 140 g/ha [10]: 0 to 29%; pest or weed control at 35 g/ha [11]: 0 to 29%; pest or weed control at 70 g/ha [11]: 0 to 29%
